Values of other authors in patent publication US12528029B2, “Separating and quantifying unbound target analytes from biological samples” (ARUP Laboratories, Inc., priority 2017, dated 2026).

Columns and labels:
[1] = target: T1, sex hormone-binding globulin (SHBG) (Homo sapiens, UniProt P04278); conditions: share of the protein-bound Te; remainder weakly bound to albumin
T1 sequence (P04278 30-402): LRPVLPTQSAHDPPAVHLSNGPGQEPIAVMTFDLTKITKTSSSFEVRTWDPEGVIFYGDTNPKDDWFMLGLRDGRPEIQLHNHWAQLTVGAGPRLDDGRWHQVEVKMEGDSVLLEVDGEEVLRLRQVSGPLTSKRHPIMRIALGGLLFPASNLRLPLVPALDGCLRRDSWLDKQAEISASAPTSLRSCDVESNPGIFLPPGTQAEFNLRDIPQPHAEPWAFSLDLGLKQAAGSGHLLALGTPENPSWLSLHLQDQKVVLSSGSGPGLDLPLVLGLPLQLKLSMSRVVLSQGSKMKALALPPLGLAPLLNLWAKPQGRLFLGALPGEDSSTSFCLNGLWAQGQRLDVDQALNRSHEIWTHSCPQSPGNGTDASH

[2] = target: T2, vitamin D binding protein (VDBP) (Homo sapiens, UniProt P02774); conditions: serum
T2 construct: host or cells: circulating blood / serum
T2 sequence (P02774 17-474): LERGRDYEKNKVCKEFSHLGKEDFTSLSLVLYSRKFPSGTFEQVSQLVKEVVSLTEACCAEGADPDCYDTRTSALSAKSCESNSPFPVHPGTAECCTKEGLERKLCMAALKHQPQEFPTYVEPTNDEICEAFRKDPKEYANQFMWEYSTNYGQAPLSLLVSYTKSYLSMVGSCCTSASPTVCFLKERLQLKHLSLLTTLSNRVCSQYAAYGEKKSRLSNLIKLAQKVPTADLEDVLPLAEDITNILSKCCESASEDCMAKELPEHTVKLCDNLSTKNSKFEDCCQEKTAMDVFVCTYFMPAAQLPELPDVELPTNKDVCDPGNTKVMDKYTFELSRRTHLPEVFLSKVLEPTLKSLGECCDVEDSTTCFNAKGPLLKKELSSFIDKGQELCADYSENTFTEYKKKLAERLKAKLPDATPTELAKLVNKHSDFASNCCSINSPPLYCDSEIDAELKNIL

albumin = target: T3, albumin (Homo sapiens, UniProt P02768)
T3 construct: host or cells: circulating blood / serum
T3 sequence (P02768 25-609): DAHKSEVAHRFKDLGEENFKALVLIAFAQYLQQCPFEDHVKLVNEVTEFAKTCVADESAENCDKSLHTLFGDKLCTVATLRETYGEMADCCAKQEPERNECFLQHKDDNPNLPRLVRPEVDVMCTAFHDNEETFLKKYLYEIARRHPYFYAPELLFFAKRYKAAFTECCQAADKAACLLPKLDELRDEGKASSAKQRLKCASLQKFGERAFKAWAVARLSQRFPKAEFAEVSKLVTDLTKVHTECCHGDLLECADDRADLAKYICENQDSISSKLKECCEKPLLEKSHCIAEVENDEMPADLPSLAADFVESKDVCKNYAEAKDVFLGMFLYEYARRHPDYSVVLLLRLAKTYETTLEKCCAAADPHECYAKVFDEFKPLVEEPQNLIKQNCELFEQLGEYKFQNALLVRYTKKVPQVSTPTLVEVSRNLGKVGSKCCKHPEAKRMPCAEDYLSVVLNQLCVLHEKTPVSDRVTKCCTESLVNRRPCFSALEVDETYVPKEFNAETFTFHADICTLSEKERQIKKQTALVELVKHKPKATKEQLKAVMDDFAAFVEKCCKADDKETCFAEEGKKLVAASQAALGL

Row | Compound | fraction of Te present in unbound, free form (circulating in blood) | protein bound Te strongly bound to SHBG [1] | circulating vitamin D in the form of 25OHD, tightly bound to VDBP [2] | 25OHD circulating in blood bound to albumin (albumin) | circulating 25OHD that is free (not protein bound) (circulating)
1 | C[C@]12CC[C@H]3[C@@H](CCC4=CC(=O)CC[C@@]43C)[C@@H]1CC[C@@H]2O [Te, Testosterone] | 1-3% | 60-70% |  |  | 
2 | 25-hydroxy vitamin D [25OHD] |  |  | 85-90% | 10-15% | Less than 0.1%
